Key:
Androgen receptor = target: T1, Androgen receptor (Homo sapiens, UniProt P10275); assay: Binding affinity for androgen receptor
T1 sequence (P10275 whole entry): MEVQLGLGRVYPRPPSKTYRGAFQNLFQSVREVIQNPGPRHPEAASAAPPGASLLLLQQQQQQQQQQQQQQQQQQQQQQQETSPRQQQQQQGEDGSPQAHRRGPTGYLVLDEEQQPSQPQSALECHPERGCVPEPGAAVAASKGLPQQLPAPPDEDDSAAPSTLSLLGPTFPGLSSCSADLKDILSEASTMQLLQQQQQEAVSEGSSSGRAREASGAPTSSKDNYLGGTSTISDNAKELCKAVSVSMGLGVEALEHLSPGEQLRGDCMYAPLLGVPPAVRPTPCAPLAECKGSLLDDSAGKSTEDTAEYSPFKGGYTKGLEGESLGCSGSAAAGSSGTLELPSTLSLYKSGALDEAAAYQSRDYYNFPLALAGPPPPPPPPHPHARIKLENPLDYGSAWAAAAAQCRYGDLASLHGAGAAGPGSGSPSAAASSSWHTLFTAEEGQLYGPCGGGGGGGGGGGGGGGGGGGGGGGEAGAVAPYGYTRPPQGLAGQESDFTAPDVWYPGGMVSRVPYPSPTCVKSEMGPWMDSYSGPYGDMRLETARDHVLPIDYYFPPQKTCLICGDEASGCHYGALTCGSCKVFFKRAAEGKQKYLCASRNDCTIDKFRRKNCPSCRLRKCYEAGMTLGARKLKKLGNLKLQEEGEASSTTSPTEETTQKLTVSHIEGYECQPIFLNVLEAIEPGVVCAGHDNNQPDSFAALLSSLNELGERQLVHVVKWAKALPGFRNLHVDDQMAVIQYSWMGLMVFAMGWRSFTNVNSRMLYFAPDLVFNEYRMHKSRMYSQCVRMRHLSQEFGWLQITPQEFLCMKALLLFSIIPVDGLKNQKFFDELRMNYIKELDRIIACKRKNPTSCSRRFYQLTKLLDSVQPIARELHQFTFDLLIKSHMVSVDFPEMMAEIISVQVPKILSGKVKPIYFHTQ

Glucocorticoid receptor [1] = target: T2, Glucocorticoid receptor (Homo sapiens, UniProt P04150); assay: Glucocorticoid-induced aromatase activity in human skin fibroblasts; format: functional
T2 sequence (P04150 whole entry): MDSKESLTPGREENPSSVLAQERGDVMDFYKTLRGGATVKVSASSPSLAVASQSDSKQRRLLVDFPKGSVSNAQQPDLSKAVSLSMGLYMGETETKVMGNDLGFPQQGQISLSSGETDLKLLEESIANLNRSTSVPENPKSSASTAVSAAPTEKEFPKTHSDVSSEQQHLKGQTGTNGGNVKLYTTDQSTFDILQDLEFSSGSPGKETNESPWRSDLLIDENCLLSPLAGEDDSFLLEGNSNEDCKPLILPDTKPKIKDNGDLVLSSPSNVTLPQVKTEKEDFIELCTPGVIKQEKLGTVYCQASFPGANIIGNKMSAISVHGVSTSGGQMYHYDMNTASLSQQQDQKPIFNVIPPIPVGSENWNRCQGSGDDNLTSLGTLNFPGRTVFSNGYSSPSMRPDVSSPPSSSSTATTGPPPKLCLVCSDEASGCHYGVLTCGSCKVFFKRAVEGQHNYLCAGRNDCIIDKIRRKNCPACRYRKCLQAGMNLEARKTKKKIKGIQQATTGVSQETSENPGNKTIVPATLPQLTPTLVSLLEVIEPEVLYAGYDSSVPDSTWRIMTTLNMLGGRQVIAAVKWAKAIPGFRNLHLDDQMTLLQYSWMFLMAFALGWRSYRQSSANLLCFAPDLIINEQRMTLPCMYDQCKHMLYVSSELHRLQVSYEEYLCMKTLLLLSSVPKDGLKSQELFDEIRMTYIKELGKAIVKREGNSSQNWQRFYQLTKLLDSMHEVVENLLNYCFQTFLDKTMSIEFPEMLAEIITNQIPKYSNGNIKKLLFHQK

Glucocorticoid receptor [2] = target: T2, Glucocorticoid receptor; assay: Binding affinity for glucocorticoid receptor
Estrogen receptor = Estrogen receptor (Homo sapiens, UniProt Q92731+P03372); assay: Binding affinity for estrogen receptor; format: protein assay
Glucocorticoid receptor [3] = target: T2, Glucocorticoid receptor; assay: Transcriptional activation in CV-1 cells expressing glucocorticoid receptor; format: functional, cell-based
Glucocorticoid receptor [4] = target: T2, Glucocorticoid receptor; assay: Repression activity of GR ligand with interleukin-6 receptor in native cell assay using Dexamethasone was determined as maximal potency; format: functional
Glucocorticoid receptor [5] = target: T2, Glucocorticoid receptor; assay: Transcriptional repression activity in HEP G2 cells expressing glucocorticoid receptor compared to Dexamethasone; format: functional, cell-based, HepG2
[6] = target: T3, Mineralocorticoid receptor (Homo sapiens, UniProt P08235); assay: Binding affinity for mineralocorticoid receptor
T3 sequence (P08235 whole entry): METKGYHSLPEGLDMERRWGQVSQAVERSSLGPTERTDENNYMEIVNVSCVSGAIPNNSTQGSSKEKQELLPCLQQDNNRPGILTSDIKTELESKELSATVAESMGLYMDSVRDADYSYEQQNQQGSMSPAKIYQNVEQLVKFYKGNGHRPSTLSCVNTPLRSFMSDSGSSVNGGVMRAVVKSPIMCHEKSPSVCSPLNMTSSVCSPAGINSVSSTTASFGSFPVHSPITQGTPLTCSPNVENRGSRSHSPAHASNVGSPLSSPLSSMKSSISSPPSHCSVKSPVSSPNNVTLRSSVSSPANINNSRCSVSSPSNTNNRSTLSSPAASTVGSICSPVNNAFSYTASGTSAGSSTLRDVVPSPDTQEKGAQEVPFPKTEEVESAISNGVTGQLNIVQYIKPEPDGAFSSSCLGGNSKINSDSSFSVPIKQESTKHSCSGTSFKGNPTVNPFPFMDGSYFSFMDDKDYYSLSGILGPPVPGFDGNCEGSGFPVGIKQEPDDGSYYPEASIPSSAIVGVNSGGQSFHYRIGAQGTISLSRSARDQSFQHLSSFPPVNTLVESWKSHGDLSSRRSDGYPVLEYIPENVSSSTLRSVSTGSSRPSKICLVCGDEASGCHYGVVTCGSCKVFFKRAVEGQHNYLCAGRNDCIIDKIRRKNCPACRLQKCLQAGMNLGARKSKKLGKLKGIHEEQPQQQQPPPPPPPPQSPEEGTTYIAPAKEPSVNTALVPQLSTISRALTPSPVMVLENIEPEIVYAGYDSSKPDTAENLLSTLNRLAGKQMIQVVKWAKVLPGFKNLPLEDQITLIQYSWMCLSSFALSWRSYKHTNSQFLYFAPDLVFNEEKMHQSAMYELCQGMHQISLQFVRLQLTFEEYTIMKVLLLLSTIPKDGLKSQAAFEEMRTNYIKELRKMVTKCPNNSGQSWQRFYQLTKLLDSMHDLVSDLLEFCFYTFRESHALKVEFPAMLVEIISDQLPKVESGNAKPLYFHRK

Progesterone receptor = target: T4, Progesterone receptor (Homo sapiens, UniProt P06401); assay: Binding affinity for progesterone receptor
T4 sequence (P06401 whole entry): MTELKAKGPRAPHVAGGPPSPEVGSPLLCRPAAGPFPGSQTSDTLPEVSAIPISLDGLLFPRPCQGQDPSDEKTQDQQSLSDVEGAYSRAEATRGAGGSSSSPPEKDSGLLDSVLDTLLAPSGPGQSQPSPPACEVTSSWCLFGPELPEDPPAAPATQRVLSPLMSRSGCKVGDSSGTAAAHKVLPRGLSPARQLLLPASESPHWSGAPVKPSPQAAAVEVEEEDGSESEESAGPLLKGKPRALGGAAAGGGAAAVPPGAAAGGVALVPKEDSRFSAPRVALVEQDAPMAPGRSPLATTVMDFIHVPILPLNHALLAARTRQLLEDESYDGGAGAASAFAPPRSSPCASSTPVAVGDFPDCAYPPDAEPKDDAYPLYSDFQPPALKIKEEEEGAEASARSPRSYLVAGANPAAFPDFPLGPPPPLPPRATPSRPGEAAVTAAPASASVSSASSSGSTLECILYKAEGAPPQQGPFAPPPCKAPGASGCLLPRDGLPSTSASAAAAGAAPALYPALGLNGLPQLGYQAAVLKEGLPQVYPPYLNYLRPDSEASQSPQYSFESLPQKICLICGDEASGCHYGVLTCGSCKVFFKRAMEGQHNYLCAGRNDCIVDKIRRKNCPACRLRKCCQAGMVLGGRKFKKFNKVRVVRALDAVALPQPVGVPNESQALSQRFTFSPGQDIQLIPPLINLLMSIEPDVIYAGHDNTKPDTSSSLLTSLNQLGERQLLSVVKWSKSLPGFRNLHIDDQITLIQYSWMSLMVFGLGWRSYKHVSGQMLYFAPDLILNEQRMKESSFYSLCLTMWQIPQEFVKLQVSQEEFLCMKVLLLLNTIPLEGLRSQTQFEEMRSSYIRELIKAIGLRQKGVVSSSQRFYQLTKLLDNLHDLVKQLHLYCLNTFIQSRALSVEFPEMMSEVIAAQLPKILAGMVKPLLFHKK

Glucocorticoid receptor [7] = target: T2, Glucocorticoid receptor; assay: Displacement of [3H]- Dexamethasone from glucocorticoid receptor
Glucocorticoid receptor [8] = target: T2, Glucocorticoid receptor; assay: Transcriptional repression of IL-1 stimulated IL-6 expression in native cells compared to Dexamethasone; format: functional, cell-based
Rattus norvegicus = species: Rattus norvegicus; assay: Anti-asthmatic effect as eosinophil influx in rat lung model; format: functional

COc1cccc2c1-c1ccc3c(c1C(c1ccccc1)O2)C(C)=CC(C)(C)N3 (stereo in doubt; 10) showed a Ki (Androgen receptor) of 2.66 µM, an IC50 (Glucocorticoid receptor [1]) of 164 nM and a Ki (Glucocorticoid receptor [2]) of 4.7 nM. It also gave a Ki (Estrogen receptor) greater than 1000 nM, an IC50 (Glucocorticoid receptor [3]) of 300 nM and an IC50 (Glucocorticoid receptor [4]) of 51 nM. The IC50 (Glucocorticoid receptor [5]) was 123 nM, the Ki [6] was 1680 nM and the Ki (Progesterone receptor) was greater than 5 µM.

COc1ccc2c(c1)OC(c1ccccc1)c1c-2ccc2c1C(C)=CC(C)(C)N2 (stereo unspecified) showed a Ki (Glucocorticoid receptor [2]) of 1800 nM and a Ki (Progesterone receptor) greater than 5 µM.

For COc1cccc2c1-c1ccc3c(c1C(c1cc(F)cc(F)c1)O2)C(C)=CC(C)(C)N3 (stereo unspecified), the IC50 (Glucocorticoid receptor [1]) was 56 nM, the IC50 (Glucocorticoid receptor [3]) was 10 nM and the IC50 (Glucocorticoid receptor [4]) was 11 nM. For the same compound, the IC50 (Glucocorticoid receptor [5]) was 9 nM.

COc1cccc2c1-c1ccc3c(c1C(c1cccc(OC(=O)N(C)C)c1)O2)C(C)=CC(C)(C)N3 (stereo unspecified) was tested, and the Ki (Androgen receptor) was 3.07 µM, the IC50 (Glucocorticoid receptor [1]) was 216 nM and the Ki (Glucocorticoid receptor [7]) was 2.4 nM. The Ki (Estrogen receptor) was greater than 1000 nM, the IC50 (Glucocorticoid receptor [3]) was 12 nM and the IC50 (Glucocorticoid receptor [4]) was 26 nM. The IC50 (Glucocorticoid receptor [5]) was 6 nM, the Ki [6] was 3910 nM and the Ki (Progesterone receptor) was greater than 5 µM.

COCOc1cccc(C2Oc3cccc(OC)c3-c3ccc4c(c32)C(C)=CC(C)(C)N4)c1 (stereo unspecified) gave an IC50 (Glucocorticoid receptor [1]) of 131 nM, an IC50 (Glucocorticoid receptor [3]) of 28 nM and an IC50 (Glucocorticoid receptor [4]) of 49 nM. For the same compound, the IC50 (Glucocorticoid receptor [5]) was 23 nM.

COc1cccc2c1-c1ccc3c(c1C(c1ccccc1)O2)C(C)=CC(C)(C)N3 (single isomer, unassigned; (-)) showed a Ki (Glucocorticoid receptor [2]) of 2.1 nM, an IC50 (Glucocorticoid receptor [8]) of 30 nM and a Ki (Progesterone receptor) greater than 5 µM.

Compound COc1ccc2c(c1)-c1ccc3c(c1C(c1ccccc1)O2)C(C)=CC(C)(C)N3 (stereo unspecified) has a Ki (Glucocorticoid receptor [2]) of 18 nM and a Ki (Progesterone receptor) of 0.39 µM.

Compound C[C@]12C=CC(=O)C=C1CC[C@@H]1[C@@H]2[C@@H](O)C[C@@]2(C)[C@H]1CC[C@]2(O)C(=O)CO [PREDNISOLONE] has a Ki (Estrogen receptor) greater than 1000 nM, an ED50 (Rattus norvegicus) of 1.2 mg/kg and a Ki [6] of 37 nM.

For COc1cccc2c1-c1ccc3c(c1C(c1cc(C)cc(Br)c1)O2)C(C)=CC(C)(C)N3 (stereo unspecified), the IC50 (Glucocorticoid receptor [1]) was 314 nM, the IC50 (Glucocorticoid receptor [3]) was 29 nM and the IC50 (Glucocorticoid receptor [4]) was 12 nM. For the same compound, the IC50 (Glucocorticoid receptor [5]) was 18 nM.

With COc1cccc2c1-c1ccc3c(c1C(c1cc(Cl)cc(Cl)c1)O2)C(C)=CC(C)(C)N3 (stereo in doubt; (-)22) the Ki (Progesterone receptor) was 1.56 µM.

For COc1cccc2c1-c1ccc3c(c1C(c1cc(C)cc(C)c1)O2)C(C)=CC(C)(C)N3 (stereo unspecified), the IC50 (Glucocorticoid receptor [1]) was 146 nM, the IC50 (Glucocorticoid receptor [3]) was 24 nM and the IC50 (Glucocorticoid receptor [4]) was 9.2 nM. It also gave an IC50 (Glucocorticoid receptor [5]) of 18 nM.

COc1cccc2c1-c1ccc3c(c1C(c1cc(Cl)cc(Cl)c1)O2)C(C)=CC(C)(C)N3 (stereo in doubt; 17) showed a Ki (Progesterone receptor) greater than 5 µM.

COc1cccc2c1-c1ccc3c(c1C(c1ccccc1)O2)C(C)=CC(C)(C)N3 (stereo in doubt; (+)19) was tested, and the Ki (Androgen receptor) was greater than 5 µM, the Ki (Glucocorticoid receptor [2]) was 240 nM and the Ki [6] was greater than 5000 nM. For the same compound, the Ki (Progesterone receptor) was greater than 5 µM.

For COc1cccc2c1-c1ccc3c(c1C(c1cccc(C(F)(F)F)c1)O2)C(C)=CC(C)(C)N3 (stereo unspecified), the Ki (Androgen receptor) was 3.36 µM, the IC50 (Glucocorticoid receptor [1]) was 105 nM and the Ki (Glucocorticoid receptor [2]) was 11 nM. It also gave a Ki (Estrogen receptor) greater than 1000 nM, an IC50 (Glucocorticoid receptor [3]) of 44 nM and an IC50 (Glucocorticoid receptor [4]) of 32 nM. For the same compound, the IC50 (Glucocorticoid receptor [5]) was 57 nM and the Ki [6] was 493 nM.

CC1=CC(C)(C)Nc2ccc3c(c21)C(c1ccccc1)Oc1ccc(Cl)cc1-3 (stereo unspecified) showed a Ki (Androgen receptor) of 1.4 µM, a Ki (Glucocorticoid receptor [2]) of 9.3 nM and a Ki (Estrogen receptor) greater than 1000 nM. It also gave a Ki [6] of 1100 nM and a Ki (Progesterone receptor) of 0.053 µM.

In the case of COc1cccc2c1-c1ccc3c(c1C(c1cc(Cl)cc(Cl)c1)O2)C(C)=CC(C)(C)N3 (single isomer, unassigned; (+)), the Ki (Androgen receptor) is reported as greater than 5 µM, the Ki [6] is reported as greater than 5000 nM and the Ki (Progesterone receptor) is reported as greater than 5 µM.
